# Like-named read-outs stand apart in the source and are kept apart here.
# Key:
# [1] = tested on: histidine decarboxylase (HDC); assay: Number of HDC immunoreactive neurons in the tuberomammillary nuclei (immunohistochemistry); assay type: in vivo, cat
# Description: […] animals were used for the immunohistochemical study to label the histamine synthesizing enzyme: the HDC. This study was performed on the same four groups of cats used for the behavioral investigation (cats 10–22). These lesioned animals (left UVN) were all killed 40 days after vestibular lesion. A supplementary group of intact animals (n = 4: cats 23–26) was used as a negative control group without vestibular lesion.
# Cats were deeply anesthetized with ketamine dihydrochloride (20 mg/kg, i.m., Rhône Poulenc Mérieux) and perfused under isoflurane intubation (2%), through the ascending aorta, with 1 L of normal saline solution (0.9%) containing 0.1% heparine, and thereafter with 2 L of ice-cold 0.1 M phosphate buffer (PB, pH 7.4) including 4% paraformaldehyde and 0.2% picric acid.
# After removal from the skull, the brain was cut into several blocks and post-fixed overnight at 4°C in the same solution. The blocks were then rinsed and cryoprotected by increasing concentrations (10, 20, and 30%) of sucrose solution in 0.1 M PB for 72 h at 4°C. Blocks containing the TMN were rapidly frozen with CO2 gas, and coronal sections 20 μm thick were cut in a cryostat (Leica, Rueil-Malmaison, France).
# Free-floating sections were first incubated three times for 5 min in PBS (phosphate buffer saline 0.1 M), then for 1 h in 10% BSA, and 0.25% Triton X-100. Thereafter, sections were incubated under continuous agitation 24 h at 4°C with a Guinea pig polyclonal anti-HDC antiserum (1:1,000 in PBS containing 2% BSA and 0.25% Triton; Fisher scientific). After several rinses (3 × 5 min in PBS with 2% BSA and 3 × 5 min in PBS with 5% BSA) sections were incubated for 1 h, respectively, in biotinylated rabbit anti-guinea pig IgG (1:200 in PBS containing 2% BSA; from Vector Laboratories, Burlingame, CA). […]
# The tuberomammillary nuclei (TMN) of the posterior hypothalamus, the sole structure in the brain containing histaminergic neurons, were identified using Berman's stereotaxic atlas ([38]). […] Serial sections in the TMN of each animal were analyzed, five sections at each of the five rostrocaudal levels examined (A12, A11, A10.2, A9.5, and A8.3) being quantified. The number of HDC immunoreactive neurons was quantified by means of a computer-assisted image analysis (DMLB microscope: Leica Microsystems, Wetzlar, Germany) equipped with a DXM 1200 Nikon high-resolution digital camera (1,024 × 1,024 pixels; Nikon, Tokyo, Japan) interfaced to a PC computer employing image software for capturing and processing the images (Lucia G, Nikon, Champigny-sur-Marne, France). Quantification of the immunolabeled neurons was performed via a gray-level method by adjusting a threshold brightness value, and only cells labeled with a gray value above this threshold were taken into account. Reproducibility was assessed by comparing the same data analyzed independently by two researchers blind to the animals' groups. The specific immunolabeling was quantified in each section as the number of labeled neurons, and was automatically computed and evaluated thereafter as the mean (± SEM) for each side, each cat, and each subgroup of cats. To eliminate quantification problems due to potentially asymmetric slides, data were collected from symmetrical slides only, and symmetry was assessed on the basis of the number of cells stained with cresyl violet on each side. […]
# [2] = tested on: monoamine oxidase a/b; settings: background statement, no reference given; cited from earlier work
# [3] = Plasma pharmacokinetics of betahistine and 2-PAA after oral dosing in UVN cats (LC-MS/MS, non-compartmental analysis); assay type: in vivo, cat; settings: for AUC / Cmax / Tmax / half-life: male, plasma, po; for half-life: read-out: Betahistine t1/2 (converted)
# Description: The experiments were performed on nine adult male UVN cats randomly allocated into three groups of cats. Three groups of three adult male cats received 0.2 mg/kg betahistine (N = 3: cats 1–3), 2 mg/kg betahistine (N = 3: cats 4–6), or 0.2 mg/kg betahistine plus 1 mg/kg selegiline (N = 3: cats 7–9). […] The samples were frozen at −80°C until analysis. Pharmacokinetic parameters of betahistine and its major metabolite 2-PAA were calculated by applying non-compartmental analysis.
# Betahistine and its internal standard, betahistine-d3, were extracted by liquid/liquid extraction from plasma under alkaline conditions toward 1-butanol/isooctane, followed by a second liquid/liquid extraction step of acidic 1-butanol/isooctane toward water. Betahistine concentration in plasma was analyzed using a validated LC-MS/MS method. In brief, an API 4000 (Applied Biosystems) mass spectrometer coupled with a Symbiosis HPLC system (Sparks, Emmen, The Netherlands) was employed to analyze betahistine. Extracts (100 μl) were injected into a XTerra RP18 150 ^* 4.6 mm, 3.5 μm column (Waters, Etten-Leur, The Netherlands) and separated at 30°C under isocratic conditions using an aqueous metanol solution containing 0.5 mM ammonium formate as mobile phase. Betahistine was quantified by a tandem mass spectrometer in positive MRM. Parent daughter transition was followed for betahistine (m/z 137 > 94). Betahistine-d3 dihydrochloride was used as internal standard. Pharmacokinetic parameters of betahistine were calculated by applying non-compartmental analysis using the validated PK software WinNonLin, version 5.23 (Pharsight Corporation, Mountain View, CA, USA).
# Cmax and tmax were derived directly from the plasma concentration-time curves. Linear trapezoidal rule was used to calculate AUC0-t during the part of the curve with increasing plasma concentrations. For the descending part of the curve, the log-linear trapezoidal rule was used. Calculation of the elimination half-life (t1/2) was evaluated as ln 2/kel, with kel as the slope of the terminal phase of the plasma concentration-time curve.
# [4] = UVN D40, betahistine 2 mg/kg, p < 0.0001
# [5] = cats, abstract statement, up to
# [6] = 0.2 mg/kg, UVN cats, oral betahistine 0.2 mg/kg alone, day 1
# [7] = 2 mg/kg, UVN cats, oral betahistine 2 mg/kg alone, day 1
# [8] = 2 mg/kg, UVN cats, oral betahistine 2 mg/kg alone, day 21
# [9] = UVN cats, oral betahistine 0.2 mg/kg plus selegiline 1 mg/kg, day 1
# [10] = UVN cats, oral betahistine 0.2 mg/kg plus selegiline 1 mg/kg, day 21
smiles,measurement,setting,value
"CNCCc1ccccn1 [Betahistine, betahistine]","Number of HDC immunoreactive neurons, ipsilateral TMN","[1]; UVN D40, betahistine 0.2 mg/kg without selegiline, UVN untreated 151.78 ± 3.29",151.3 ± 1.51
same,"Number of HDC immunoreactive neurons, contralateral TMN","[1]; UVN D40, betahistine 0.2 mg/kg without selegiline, UVN untreated 152.4 ± 3.63",151.1 ± 1.63
same,"Number of HDC immunoreactive neurons, contralateral TMN",[1]; [4],191.68 ± 2.04
same,"Number of HDC immunoreactive neurons, ipsilateral TMN",[1]; [4],190.85 ± 1.58
same,"Number of HDC immunopositive neurons on both sides, on average","[1]; lesion and betahistine 2 mg/kg, 40 days post-lesion, compared to UVN untreated cats as worded",210%
same,Share of the drug fastly metabolized by the monoamine oxidase a/b,[2],95%
same,Cmax- and AUC-values in cats compared to human,[3]; cats higher than human,40–50 times
same,Increase of betahistine AUC by co administration of selegiline,[3]; [5],≤ 180 fold
same,Increase of betahistine Cmax by co administration of selegiline,[3]; [5],up to 146 fold
same,AUC,"[3]; 0.2 mg/kg, PK/PD table, DAY 2, BH 0.2 mg/kg, read-out: AUC (betahistine)",3.65 ng·h/mL
same,Cmax,"[3]; 0.2 mg/kg, PK/PD table, DAY 2, BH 0.2 mg/kg, read-out: Cmax (betahistine)",4.11 ng/mL
same,Tmax,[3]; [6],0.25 h
same,AUC,"[3]; 0.2 mg/kg, UVN cats, oral betahistine 0.2 mg/kg alone, day 1, read-out: Betahistine AUC",3.7 ± 2.1 ng·h/mL
same,Cmax,"[3]; 0.2 mg/kg, UVN cats, oral betahistine 0.2 mg/kg alone, day 1, read-out: Betahistine Cmax",4.1 ± 2.9 ng/mL
same,half-life,[3]; [6],1.9 ± 0.7 h
same,Tmax,"[3]; 0.2 mg/kg, UVN cats, oral betahistine 0.2 mg/kg alone, day 21",2 h
same,half-life,"[3]; 0.2 mg/kg, UVN cats, oral betahistine 0.2 mg/kg alone, day 21, n = 2",4 h
same,AUC,"[3]; 0.2 mg/kg, UVN cats, oral betahistine 0.2 mg/kg alone, day 21, read-out: Betahistine AUC",1.5 ± 0.6 ng·h/mL
same,Cmax,"[3]; 0.2 mg/kg, UVN cats, oral betahistine 0.2 mg/kg alone, day 21, read-out: Betahistine Cmax",0.6 ± 0.4 ng/mL
same,AUC,"[3]; 2 mg/kg, PK/PD table, DAY 2, BH 2.0 mg/kg, read-out: AUC (betahistine)",26.7 ng·h/mL
same,Cmax,"[3]; 2 mg/kg, PK/PD table, DAY 2, BH 2.0 mg/kg, read-out: Cmax (betahistine)",54 ng/mL
same,Tmax,[3]; [7],0.25 h
same,AUC,"[3]; 2 mg/kg, UVN cats, oral betahistine 2 mg/kg alone, day 1, read-out: Betahistine AUC",19.7 ± 5 ng·h/mL
same,Cmax,"[3]; 2 mg/kg, UVN cats, oral betahistine 2 mg/kg alone, day 1, read-out: Betahistine Cmax",23.8 ± 11.2 ng/mL
same,half-life,[3]; [7],3 ± 2.6 h
same,Tmax,[3]; [8],0.5 h
same,AUC,"[3]; 2 mg/kg, UVN cats, oral betahistine 2 mg/kg alone, day 21, read-out: Betahistine AUC",51 ± 42.4 ng·h/mL
same,Cmax,"[3]; 2 mg/kg, UVN cats, oral betahistine 2 mg/kg alone, day 21, read-out: Betahistine Cmax",38.9 ± 34.9 ng/mL
same,half-life,[3]; [8],1.6 ± 0.3 h
same,AUC,"[3]; PK/PD table, DAY 2, BH 0.2 mg/kg + Selegiline 1 mg/kg, read-out: AUC (betahistine)",19.7 ng·h/mL
same,Cmax,"[3]; PK/PD table, DAY 2, BH 0.2 mg/kg + Selegiline 1 mg/kg, read-out: Cmax (betahistine)",23.8 ng/mL
same,Tmax,[3]; [9],0.25 h
same,AUC,"[3]; UVN cats, oral betahistine 0.2 mg/kg plus selegiline 1 mg/kg, day 1, read-out: Betahistine AUC",26.7 ± 24.1 ng·h/mL
same,half-life,[3]; [9],2.5 ± 0.5 h
same,Tmax,[3]; [10],1 h
same,AUC,"[3]; UVN cats, oral betahistine 0.2 mg/kg plus selegiline 1 mg/kg, day 21, read-out: Betahistine AUC",6.7 ± 5.1 ng·h/mL
same,Cmax,"[3]; UVN cats, oral betahistine 0.2 mg/kg plus selegiline 1 mg/kg, day 21, read-out: Betahistine Cmax",13.2 ± 13 ng/mL
same,half-life,[3]; [10],1.9 ± 0.4 h
same,Betahistine Cmax with versus without selegiline co-administration,"[3]; repeated administration, day 21",65 fold
same,Increase of betahistine AUC0−7h by selegiline 1 mg/kg,"[3]; single administration, day 1",~ 5 fold
same,Increase of betahistine Cmax by selegiline 1 mg/kg,"[3]; single administration, day 1",~ 5 fold

# From paper PMC6005348, “Betahistine Treatment in a Cat Model of Vestibular Pathology: Pharmacokinetic and Pharmacodynamic Approaches” (Frontiers in Neurology, 2018)
